Experimental data as given in PubChem BioAssay AID328 (DTP/NCI, 2004).
Where “and” joins values, the source holds several entries; their conditions need not be identical. Equal values may be shown once. Toxic doses and inconclusive results are not listed. Starred links: 1 amine or outer side, 2 acyl side, 3 side chain; linkers in the order of their positions; H or OH if unused. Positions of bridges follow the written chain, without caps; N, C: chain ends. Non-standard residues stand in square brackets, D forms with d. Residues, ends and D or L forms follow the SMILES beside them. Chains are numbered I, II in the order given. Actinocin(1to9) = Cc1c2oc3c(C)ccc(C(=O)[*:2])c3nc-2c(C(=O)[*:1])c(N)c1=O; NMeV = CN[CH](C(=O)O)C(C)C; Sar = CNCC(=O)O

Test system: BDF1 mice, P388 leukemia ip, median survival T/C
Assay: NCI In Vivo Anticancer Drug Screen. Data for tumor model P388 Leukemia (intraperitoneal) in B6D2F1 (BDF1) mice
Conditions: endpoint: median survival time, higher = longer survival
Outline: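 T/C = treated-group survival ÷ vehicle-control survival; tumour transplanted into mice before dosing.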

## Cc1ccc2c(c1)N=C(Nc1ccccc1)N=S2(C)=O (stereo unspecified)
dose: 25.0 mg/kg/injection, schedule: Q01DX009 (ip), vehicle: saline with Tween-80
  T/C: 123 % of control
dose: 100.0 mg/kg/injection, schedule: Q01DX009 (ip), vehicle: saline with Tween-80
  T/C: 160 % of control

## CCC(C)C1NC(=O)C(NC(=O)c2c3nc4c(C(=O)NC5C(=O)NC(C(C)C)C(=O)N6CCCC6C(=O)N(C)CC(=O)N(C)C(C(C)C)C(=O)OC5C)ccc(C)c4oc-3c(C)c(=O)c2N)C(C)OC(=O)C(C(C)C)N(C)C(=O)CN(C)C(=O)C2CCCN2C1=O (stereo unspecified) (I: TIP[Sar][NMeV] / II: TVP[Sar][NMeV]; ester I:1-I:C, II:1-II:C; linker I:N-II:N via Actinocin(1to9); configuration not given here)
dose: 0.05 mg/kg/injection, schedule: Q01DX010 (ip), vehicle: saline
  T/C: 300 % of control
dose: 0.1 mg/kg/injection, schedule: Q01DX010 (ip), vehicle: saline
  T/C: 100 % of control
dose: 0.2 mg/kg/injection, schedule: Q01DX001 (ip), vehicle: water
  T/C: 175 % of control
dose: 0.4 mg/kg/injection, schedule: Q01DX001 (ip), vehicle: water
  T/C: 155 % of control
dose: 0.8 mg/kg/injection, schedule: Q01DX001 (ip), vehicle: water
  T/C: 175 % of control
dose: 3.1 micrograms/kg/injection, schedule: Q01DX001 (ip), vehicle: saline
  T/C: 118 % of control
dose: 3.1 micrograms/kg/injection, schedule: Q01DX010 (ip), vehicle: saline
  T/C: 180 % of control
dose: 3.1 micrograms/kg/injection, schedule: Q04DX003 (ip), vehicle: saline
  T/C: 118 % of control
dose: 6.0 micrograms/kg/injection, schedule: Q01DX010 (ip), vehicle: saline
  T/C: 180 % of control
dose: 6.2 micrograms/kg/injection, schedule: Q01DX010 (ip), vehicle: saline
  T/C: 190 % of control
dose: 6.3 micrograms/kg/injection, schedule: Q01DX001 (ip), vehicle: saline
  T/C: 109 % of control
dose: 12.5 micrograms/kg/injection, schedule: Q01DX009 (ip), vehicle: water
  T/C: 213 % of control
dose: 12.5 micrograms/kg/injection, schedule: Q01DX010 (ip), vehicle: saline
  T/C: 228 % of control and 220 % of control
dose: 25.0 micrograms/kg/injection, schedule: Q01DX009 (ip), vehicle: water
  T/C: 215 % of control
dose: 25.0 micrograms/kg/injection, schedule: Q01DX010 (ip), vehicle: saline
  T/C: 285 % of control and 220 % of control
dose: 25.0 micrograms/kg/injection, schedule: Q04DX003 (ip), vehicle: saline
  T/C: 154 % of control
dose: 50.0 micrograms/kg/injection, schedule: Q01DX001 (ip), vehicle: saline
  T/C: 150 % of control
dose: 50.0 micrograms/kg/injection, schedule: Q01DX009 (ip), vehicle: water
  T/C: 215 % of control
dose: 50.0 micrograms/kg/injection, schedule: Q01DX010 (ip), vehicle: saline
  T/C: 285 % of control and 300 % of control
dose: 50.0 micrograms/kg/injection, schedule: Q04DX003 (ip), vehicle: saline
  T/C: 190 % of control
dose: 75.0 micrograms/kg/injection, schedule: Q04DX003 (ip), vehicle: water
  T/C: 172 % of control
dose: 100.0 micrograms/kg/injection, schedule: Q01DX001 (ip), vehicle: saline
  T/C: 159 % of control
dose: 100.0 micrograms/kg/injection, schedule: Q01DX009 (ip), vehicle: water
  T/C: 243 % of control
dose: 100.0 micrograms/kg/injection, schedule: Q01DX010 (ip), vehicle: saline
  T/C: 110 % of control
dose: 100.0 micrograms/kg/injection, schedule: Q04DX003 (ip), vehicle: saline
  T/C: 186 % of control
dose: 150.0 micrograms/kg/injection, schedule: Q04DX003 (ip), vehicle: water
  T/C: 181 % of control
dose: 200.0 micrograms/kg/injection, schedule: Q01DX001 (ip), vehicle: saline
  T/C: 186 % of control
dose: 200.0 micrograms/kg/injection, schedule: Q01DX010 (ip), vehicle: saline
  T/C: 90 % of control
dose: 200.0 micrograms/kg/injection, schedule: Q04DX003 (ip), vehicle: saline
  T/C: 231 % of control
dose: 300.0 micrograms/kg/injection, schedule: Q04DX003 (ip), vehicle: water
  T/C: 241 % of control
dose: 400.0 micrograms/kg/injection, schedule: Q01DX001 (ip), vehicle: saline
  T/C: 218 % of control
dose: 400.0 micrograms/kg/injection, schedule: Q04DX003 (ip), vehicle: saline
  T/C: 263 % of control
dose: 600.0 micrograms/kg/injection, schedule: Q04DX003 (ip), vehicle: water
  T/C: 267 % of control

## COc1ccc(/C=N\NC(=O)OC(C)(C)C)c(OC)c1OC
dose: 100.0 mg/kg/injection, schedule: Q01DX009 (ip), vehicle: acetone
  T/C: 100 % of control
dose: 100.0 mg/kg/injection, schedule: Q04DX003 (ip), vehicle: Klucel (hydroxypropylcellulose) (HPC)
  T/C: 115 % of control
dose: 200.0 mg/kg/injection, schedule: Q01DX009 (ip), vehicle: acetone
  T/C: 86 % of control
dose: 200.0 mg/kg/injection, schedule: Q04DX003 (ip), vehicle: Klucel (hydroxypropylcellulose) (HPC)
  T/C: 110 % of control
dose: 400.0 mg/kg/injection, schedule: Q01DX009 (ip), vehicle: acetone
  T/C: 109 % of control
dose: 400.0 mg/kg/injection, schedule: Q04DX003 (ip), vehicle: Klucel (hydroxypropylcellulose) (HPC)
  T/C: 100 % of control
